# In patent US9150523B2, “Piperazine derivatives, methods for preparing same, and uses thereof in the treatment of insulin resistance” (METABOLYS, priority 2011, dated 2015):
# Tested on: db/db mouse
# Experiment: Antidiabetic activity in db/db mouse (drop in glycaemia after oral administration)
# Assay type: in vivo
# Conditions: 8 weeks old, 200 mg/kg per os
# Experimental: The antidiabetic activity of the compound of formula (I) orally on a type 2 diabetes animal model, the db/db mouse, was tested. Diabetic mice are used at the age of 8 weeks; they then have very high hyperglycaemia. The animals are stabilised at a minimum for one week after reception and up to the day of experimentation in an animal house at a temperature regulated at 21°-22° C. and subjected to a fixed cycle of light (from 7 a.m. to 7 p.m.) and darkness (from 7 p.m. to 7 a.m.). Their food consisted of a maintenance regime; water and food were supplied “ad libitum”. The mice are treated orally with the product to be tested (200 mg/kg per os) in suspension in a mixture of water and methyl cellulose or the vehicle (mixture of water and methyl cellulose) in the morning of the day of the experimentation. Just before the administration of the product and one and two hours after the administration of the product, a blood sample (one drop of blood) is taken following a small incision in the tail for determining glycaemia. This glycaemia is measured by means of a glucometer (Lifescan OneTouch Ultra, LifeScan, Johnson-Johnson Company) and OneTouch Ultra glycaemia measurement strips.
smiles,measurement,setting,value
COc1ccccc1N1CCN(CCOc2ccc(CCCCC(=O)O)cc2)CC1.Cl [Compound 1],Drop in glycaemia (in % of the initial value) After 1 hour,1 hour after administration,34%
same,Drop in glycaemia (in % of the initial value) After 2 hours,2 hours after administration,44%
